# Reference: patent US20200371122A1, “BIOMARKER FOR SENESCENT CELLS” (Buck Institute for Research on Aging, priority 2017, published 2020)
# How the values were obtained:
# Format in all cases: cell-based, human
# IMR-90 fibroblasts [1] = test: Sensitisation to IR-induced senescence by senescence-equivalent dose of 15d-PGJ2; settings: 1.4 μM
# Excerpt: (§1) Senescence was induced by irradiation with 10 Gy of ionizing radiation. Non-senescent controls (proliferating or quiescent) were placed in the irradiator for an identical period of time without turning on the irradiator. Oncogene-induced senescence was induced via lentiviral overexpression of HRAS^V12, as described previously (Wiley et al. (2016) Cell Metab. 23: 303-314).
# SA-Bgal activity was detected as described previously (Dimri et al. (1995) Proc. Natl. Acad. Sci. USA, 92: 9363-9367) using a commercial kit (Biovision).
# For EdU labeling, cells were cultured with EdU (10 μM) for 24 h, fixed in 4% buffered formalin for 10 min, washed in PBS, and permeabilized in 0.5% Triton X-100 for 30 min. Cells were treated as instructed by the manufacturer Life Technologies Cat #C10337). For immunofluorescence, cells were blocked in 10% normal goat serum for 30 min, washed, and incubated overnight in antibodies to Ki67 (Abcam) or cleaved caspase 3 (Cell Signaling). Cell were then washed, incubated in fluorescent secondary antibodies, and mounted using vectashield mounting medium with DAPI.
# PPARγ = PPARγ luciferase reporter in irradiated IMR-90 fibroblasts; settings: senescent cells, 10 days
# Excerpt: Lentiviral NF-κB reporter constructs (SA Biosciences) and baculoviral PPAR gamma constructs (Signosis) were transduced into proliferating cells. Following treatment, luciferase was extracted using Passive Lysis Buffer (Promega) and analyzed using a commercially available kit (Promega) using a Perkin-Elmer Victor™ X3 luminometer.
# IMR-90 fibroblasts [2] = test: Oncogenic ras-induced senescence of IMR-90 fibroblasts; settings: RasV12 lentivirus, 7 days treatment
# Excerpt: as §1
smiles,measurement,setting,value
CCCCC/C=C/C=C1/C(=O)C=C[C@@H]1C/C=C\CCCC(=O)O [15d-PGJ2],"SA-beta-galactosidase, EdU incorporation and cell number versus DMSO","IMR-90 fibroblasts [1]; 10 Gy IR, 10 days",no differences
same,senescence versus control cells,"IMR-90 fibroblasts [1]; lower doses of IR, 10 days",more senescent relative to control cells
same,induction of senescence,IMR-90 fibroblasts [1]; no IR,did not induce senescence on its own
CS(=O)(=O)Nc1ccc([N+](=O)[O-])cc1OC1CCCCC1 [NS-398],PPARγ activation reduced,PPARγ,~50%
CC(c1cc2ccccc2s1)N(O)C(N)=O (centres unmarked) [zileuton],"ras-induced senescence (IL-6 secretion, EdU incorporation, colony formation)",IMR-90 fibroblasts [2],blunting
